# In patent publication US20240415804A1, “METHOD OF TREATING PANCREATIC CANCER” (University of South Florida, priority 2022, published 2024):
# Key:
# [1] = system: Panc02 cells; test: MTT cell viability assay, Panc02; format: cell-based, mouse; details: API 40 μM, 24 h, vs DMSO vehicle
# Description: (§1) The methyl thiazol tetrazolium (MTT) assay was performed as described previously^58. Briefly, MiaPaCa-2, Panc02 and UN-KC-6141 cells were seeded in 96-well plates at a density of 3000 cells/well and allowed to attach overnight. PC cells were then treated with API (40 μM) or DMSO (1%) as vehicle control for 24 h at 37° C. in 5% CO2 incubator. After 24 h, media was replaced with 20 μL of MTT (1 mg/mL) (Sigma-Aldrich) and incubated for 3 h at 37° C. in 5% CO2. MTT was replaced with DMSO, and absorbance was read at 570 nm.
# (§2) MiaPaCa-2, Panc02 and UN-KC-6141 cells (2×10^5) were grown in 2 mL of growth medium in a 6-well tissue culture plate for 18-24 h until 60-80% confluency. The following solutions were prepared: Solution A) For each transfection, diluted 1 μL of miRNA-155 inhibitors (1 μM) (Table 2) or scrambled negative control miRNA (1 μM) (Qiagen, Germantown, MD, USA) into 50 μL Opti-MEM Transfection Medium (Invitrogen, Waltham, MA, USA). Solution B) For each transfection, diluted 3 μL of Hi-Perfect Transfection Reagent into 50 μL Opti-MEM Transfection Medium. Solution A was added directly to Solution B, mixed gently and the mixture incubated for 10-15 min at room temperature. […]
# [2] = system: CD8+ T cells (CD3+CD8+CD4−); test: Flow cytometry of intra-tumoral CD8+ T cells and CD40L in KC-HPC mice; format: in vivo, mouse; details: API-treated vs vehicle-treated KC-HPC mice
# Description: The inventors then assessed the expression of CD40 (a T cell co-stimulation marker) on M1 TAM (gated as MHC-II^+ and CD206) within the tumor from KC-HPC vs. KC-HPC-API mice. […] The femur and tibia were cut at the pelvic-hip joint and muscle was removed. The femurs and tibias were cut at the ends and flushed with a 30-gauge needle and 10 cc syringe filled with completed RPMI media until bone was white onto a petri dish. Pelleted bone marrow (BM) cells were treated with Red Blood Cell (RBC) lysis buffer (eBioscience, Waltham, MA, USA), according to the manufacturer's instructions, and then filtered through a […] nylon mesh cell strainer in 1×PBS. All pancreatic tumors were manually cut into ˜1-2 mm^3 fragments with a sterile razor blade and then enzymatically digested with Collagenase, type IV (Sigma-Aldrich), DNase, type IV (Sigma-Aldrich) and Hyaluronidase, Type V (Sigma-Aldrich) in Hank's Balanced Salt Solution for 1 h, spun down and washed as described in previous studies^61. Digested pancreatic tumor samples were treated with RBC lysis buffer and then filtered through a […] nylon mesh cell strainer in 1×PBS. Bone marrow and digested pancreatic tumor single cell suspensions were counted with a hemocytometer and then resuspended in 3% FBS/PBS. BM and digested pancreatic tumor cells (1×10^6) were Fc Blocked (anti-mouse CD16/CD32) and then surface stained for 30 min on ice protected from light with fluorescent anti-mouse antibodies including, CD11b-APC, Ly6C-PE/Cy7, Ly6G-PerCP, F4/80-BV650, MHC—II-BV605, CD206-FITC and CD40-PE/Cy5 along with isotype control antibodies (Biolegend, San Diego, CA, USA) to detect MDSC and macrophage subsets. Digested pancreatic tumor cells (1×10^6) were also Fc Blocked and then surface stained with fluorescent anti-mouse antibodies including CD3-FITC, CD8-PercP/Cy5.5, CD4-APC/Cy7, and CD40L-APC along with isotype control antibodies (Biolegend) to detect CD8^+ T cells. Subsequently, all samples were fixed with 2% paraformaldehyde for 15 min on ice protected from light. […]
# [3] = system: UN-KC-6141 cells; test: MTT cell viability assay, UN-KC-6141; format: cell-based, mouse; details: API 40 μM, 24 h, vs DMSO vehicle
# Description: as §1, §2
# [4] = system: MiaPaCa-2 cells; test: MTT cell viability assay, MiaPaCa-2; format: cell-based, human; details: API 40 μM, 24 h, vs DMSO vehicle
# Description: as §1, §2
compound,measurement,setting,value
"O=c1cc(-c2ccc(O)cc2)oc2cc(O)cc(O)c12 [API, 40,5,7-Trihydroxyflavone, 5,7-Dihydroxy-2-(4-hydroxyphenyl)-4-benzopyrone]",cell viability (MTT),[1],significantly inhibited
same,CD40L expression on intra-tumoral CD8+ T cells,[2],no significant changes
same,intra-tumoral CD8+ T cells (flow cytometric analysis),[2],significant increase
same,intra-tumoral CD8+ T cells absolute cell numbers,[2],significant increase
same,cell viability (MTT),[3],significantly inhibited
same,cell viability (MTT),[4],significantly inhibited
